Data set [1] has as its system colorectal HCT-116 cancer cell line. Description: In vitro cytotoxic activity (MTT assay), HCT-116. Type of data set: cell-based, human. Conditions: for inhibition at 100 µM: read-out: % inhibition ± SD HCT-116. An excerpt:
(§1) The supplemental file contained extra details.
On the technique in general: Tetrazolium dyes change colour on reduction, which living cells bring about.

For data set [2], the system named is breast MCF-7 cancer cell line. Description: In vitro cytotoxic activity (MTT assay), MCF-7. Conditions: for inhibition at 100 µM / IC50: Homo sapiens; for inhibition at 100 µM: read-out: % inhibition ± SD MCF-7; for IC50: MCF-7 cells, MTT, read-out: IC50 (mean ± SD) MCF-7. Type of data set: cell-based, human.
Source text: as §1

Data set [3] relates to lung A-549 cancer cell line. Description: In vitro cytotoxic activity (MTT assay), A-549. Particulars: Homo sapiens; for inhibition at 100 µM: A549, 48 h, read-out: % inhibition ± SD A-549.
Description: Exponentially, cells were placed in 10^4 cells/ well for 24 h, and then add fresh medium which containing different concentration of the tested sample. Serial two-fold dilution of the tested sample were added using a multichannel pipette. […] Rinse the wells using water until no stain. After that, add 30% glacial acetic acid to all wells with shaking plates on Microplate reader (TECAN, Inc.) to measure the absorbance, using a test wavelength of 490 nm. Besides, compare the treated samples with the control cell.
Data set [4] deals with liver HepG-2 cancer cell line. The data set is described as follows: In vitro cytotoxic activity (MTT assay), HepG-2. Conditions: for IC50 / inhibition at 100 µM: Homo sapiens; for IC50: HepG2, read-out: IC50 (mean ± SD) HepG-2; for inhibition at 100 µM: HepG2, 48 h, read-out: % inhibition ± SD HepG-2.
Source text: as §1

The mark [5] stands for this setting: Homo sapiens, HCT-116, 100 µM, 48 h.

The values that follow come from publication PMC11156913, “New sulfonamide-based glycosides incorporated 1,2,3-triazole as cytotoxic agents through VEGFR-2 and carbonic anhydrase inhibitory activity” (Scientific Reports, 2024).

Where two headings read alike, the source gives them in different places.

Usually melting point stands for the temperature, or range, at which the solid turns liquid. By inhibition is commonly meant the change of the read-out against control, counted positive when it falls. Usually IC50 stands for the concentration that inhibits the measured activity by half.

`CCCCNS(=O)(=O)c1ccc(N=[N+]=[N-])cc1` [Compound 3, 4-Azido-N-butylbenzenesulfonamide] showed a melting point of 47 to 49 °C. Further, the inhibition at 100 µM in data set [1] (setting [5]) amounted to 16.7 ± 0.6%. In data set [2] (MCF7, 100 µM, 48 h), the inhibition at 100 µM is 51.97 ± 0.29%. For the same compound, in data set [3], the inhibition at 100 µM turned out to be 20.47 ± 0.15%. Moreover, in data set [4] (12.5 µM), the “percentage cytotoxicity on HepG-2” value came out at 3.76±5.32%. For the same compound, the “percentage cytotoxicity on HepG-2” value in data set [4] (25 µM) turned out to be 19.08±1.88%. In addition, the “percentage cytotoxicity on HepG-2” value in data set [4] (50 µM) stood at 49.40±1.91%. Also, the “percentage cytotoxicity on HepG-2” value in data set [4] (100 µM) was 71.40±0.91%. Further, in data set [4], the IC50 came out at 57.6 ± 12.2 µM.

`CCCCNS(=O)(=O)c1ccc(-n2cc(CO[C@@H]3O[C@H](COC(C)=O)[C@H](OC(C)=O)[C@H](OC(C)=O)[C@H]3OC(C)=O)nn2)cc1` [Compound 6, N-butyl-4-(4-([2,3,4,6-tetra-O-acetyl-β-D-galactopyranosyl]oxymethyl)-1H-1,2,3-triazol-1-yl)benzenesulfonamide]: the inhibition at 100 µM in data set [1] (setting [5]) came to 0%; in data set [2] (MCF7, 100 µM, 48 h), 37.5 ± 0.52%; in data set [3], 32.53 ± 0.15%; in data set [4], 8.93 ± 0.74%.

Take `CCCCNS(=O)(=O)c1ccc(-n2cc(CO[C@@H]3OC[C@@H](O)[C@H](O)[C@H]3O)nn2)cc1` [Compound 12, N-butyl-4-(4-([β-D-Xylopyranosyl]oxymethyl)-1H-1,2,3-triazol-1-yl)benzenesulfonamide]: the melting point was in the range of 150 to 152 °C. Besides, the inhibition at 100 µM in data set [1] (Homo sapiens, HCT-116, 48 h) came to 0%. For the same compound, in data set [2] (MCF7, 48 h), the inhibition at 100 µM was 41.4 ± 0.91%. Moreover, in data set [3], the inhibition at 100 µM turned out to be 17.8 ± 0.95%. In data set [4] (12.5 µM), the “percentage cytotoxicity on HepG-2” value was 33.95±0.33%. Further, the “percentage cytotoxicity on HepG-2” value in data set [4] (25 µM) was 44.70±1.13%. Also, the “percentage cytotoxicity on HepG-2” value in data set [4] (50 µM) worked out at 55.95±0.44%. Besides, in data set [4] (100 µM), the “percentage cytotoxicity on HepG-2” value is 62.86±1.19%. Moreover, the IC50 in data set [4] amounted to 36.44 ± 0.12 µM.

`CCCCNS(=O)(=O)c1ccc(-n2cc(CO[C@@H]3O[C@H](CO)[C@H](O)[C@H](O)[C@H]3O)nn2)cc1` [Compound 10, N-butyl-4-(4-([β-D-Galactopyranosyl]oxymethyl)-1H-1,2,3-triazol-1-yl)benzenesulfonamide] showed a melting point of 100 to 102 °C. In addition, the inhibition at 100 µM in data set [1] (setting [5]) came to 8.91 ± 2.7%. For the same compound, the inhibition at 100 µM in data set [2] (MCF7, 100 µM, 48 h) was 25.4 ± 0.91%. Moreover, the inhibition at 100 µM in data set [3] stood at 32 ± 0.84%. The inhibition at 100 µM in data set [4] was found to be 35.9 ± 0.42%.

As to `COc1cccc2c1C(=O)c1c(O)c3c(c(O)c1C2=O)C[C@@](O)(C(=O)CO)C[C@@H]3O[C@H]1C[C@H](N)[C@H](O)[C@H](C)O1` [Doxorubicin, reference compound], the inhibition at 100 µM in data set [1] (setting [5]) stood at 100 ± 0.25%; in data set [2] (MCF7, 100 µM, 48 h), 100 ± 0.08%; in data set [3], 100 ± 0.2%. The results for the half-maximal inhibitory concentration (IC50) in data set [2] (MCF7) and in data set [4] were 17.4 ± 0.46 µM and 13.8 ± 0.45 µM, respectively.

With `CCCCNS(=O)(=O)c1ccc(-n2cc(CO[C@@H]3OC[C@@H](OC(C)=O)[C@H](OC(C)=O)[C@H]3OC(C)=O)nn2)cc1` [Compound 8, N-butyl-4-(4-([2,3,4-tri-O-acetyl-β-D-xylopyranosyl]oxymethyl)-1H-1,2,3-triazol-1-yl)benzenesulfonamide], the inhibition at 100 µM in data set [1] (setting [5]) stood at 41.05 ± 0.18%; in data set [2] (MCF7, 100 µM, 48 h) it was 66 ± 0.69%; in data set [3] it was 58.1 ± 0.56%. Besides, the “percentage cytotoxicity on MCF-7” value stood at 29.56±1.66% in data set [2] (12.5 µM), 36.13±2.06% in data set [2] (25 µM), 49.80±0.41% in data set [2] (50 µM) and 66.04±0.69% in data set [2] (100 µM). In addition, the IC50 came out at 46.49 ± 0.42 µM in data set [2] (MCF7) and 47 ± 0.51 µM in data set [4]. Also, the “percentage cytotoxicity on HepG-2” value in data set [4] (12.5 µM) was 23.15±0.43%; in data set [4] (25 µM), 32.80±2.12%; in data set [4] (50 µM), 50.73±1.45%; in data set [4] (100 µM) it was 69.17±0.21%.

Consider `O=S(=O)(NC1CCCCC1)c1ccc(-n2cc(CO[C@@H]3OC[C@@H](O)[C@H](O)[C@H]3O)nn2)cc1` [Compound 13, N-cyclohexyl-4-(4-([β-D-Xylopyranosyl]oxymethyl)-1H-1,2,3-triazol-1-yl)benzenesulfonamide], for which the melting point was 160 to 162 °C. Also, in data set [1] (12.5 µM), the “percentage cytotoxicity on HCT-116” value amounted to 11.00±0.65%. Also, the “percentage cytotoxicity on HCT-116” value in data set [1] (25 µM) is recorded as 28.51±0.69%. In addition, the “percentage cytotoxicity on HCT-116” value in data set [1] (50 µM) is listed as 47.00±0.79%. Also, the “percentage cytotoxicity on HCT-116” value in data set [1] (100 µM) was 70.10±1.05%. Further, in data set [1] (setting [5]), the inhibition at 100 µM worked out at 70.1 ± 1.05%. Moreover, the IC50 in data set [1] (Homo sapiens, HCT-116 cells, MTT, read-out: IC50 (mean ± SD) HCT-116) amounted to 53.1 ± 0.69 µM. The “percentage cytotoxicity on MCF-7” value in data set [2] (12.5 µM) was 34.87±5.91%. Also, the “percentage cytotoxicity on MCF-7” value in data set [2] (25 µM) amounted to 48.07±4.31%. For the same compound, the “percentage cytotoxicity on MCF-7” value in data set [2] (50 µM) is reported as 54.73±1.88%. The “percentage cytotoxicity on MCF-7” value in data set [2] (100 µM) came out at 71.43±2.03%. In addition, in data set [2] (MCF7, 100 µM, 48 h), the inhibition at 100 µM came out at 71.43 ± 0.03%. The IC50 in data set [2] (MCF7) was 30.83 ± 0.2 µM. Also, the inhibition at 100 µM in data set [3] is 54.6 ± 0.97%. In data set [4] (12.5 µM), the “percentage cytotoxicity on HepG-2” value is 43.30±0.66%. In addition, in data set [4] (25 µM), the “percentage cytotoxicity on HepG-2” value stood at 38.80±0.40%. Besides, the “percentage cytotoxicity on HepG-2” value in data set [4] (50 µM) amounted to 56.20±1.29%. Also, the “percentage cytotoxicity on HepG-2” value in data set [4] (100 µM) is recorded as 75.10±0.12%. The half-maximal inhibitory concentration (IC50) in data set [4] amounted to 30.01 ± 0.06 µM.

`O=S(=O)(NC1CCCCC1)c1ccc(-n2cc(CO[C@@H]3O[C@H](CO)[C@H](O)[C@H](O)[C@H]3O)nn2)cc1` [Compound 11, N-cyclohexyl-4-(4-([β-D-galactopyranosyl]oxymethyl)-1H-1,2,3-triazol-1-yl)benzenesulfonamide] had a melting point of 118 to 120 °C. For the same compound, the inhibition at 100 µM in data set [1] (setting [5]) turned out to be 39 ± 0.96%. Also, in data set [2] (MCF7, 100 µM, 48 h), the inhibition at 100 µM came to 20.8 ± 0.79%. For the same compound, in data set [3], the inhibition at 100 µM was 30.1 ± 0.62%. In addition, the “percentage cytotoxicity on HepG-2” value in data set [4] (12.5 µM) was found to be 44.80±0.50%. In data set [4] (25 µM), the “percentage cytotoxicity on HepG-2” value is 57.70±0.87%. Moreover, in data set [4] (50 µM), the “percentage cytotoxicity on HepG-2” value is reported as 62.70±0.36%. In data set [4] (100 µM), the “percentage cytotoxicity on HepG-2” value turned out to be 73.85±1.06%. In data set [4], the IC50 is 16.9 ± 0.09 µM.

In the case of `CCN(CC)CCNC(=O)c1c(C)[nH]c(/C=C2\C(=O)Nc3ccc(F)cc32)c1C` [Sunitinib, reference compound], in data set [3] (A549, read-out: IC50 (mean ± SD) A-549), the IC50 was determined as 10.1 ± 0.5 µM.
